Results on two compounds are retold here after BindingDB's records for doi:10.1016/j.bmcl.2005.01.080 (University of Minnesota, 2005).

Each structure is given as a SMILES string. pIC50: −log10 of the molar value. Some results are limits rather than exact numbers.

For this test, the target named is Eukaryotic translation initiation factor 4E (Homo sapiens, UniProt P06730). The test is described as follows: Inhibitory concentration against 7-methyl-GTP binding to eukaryotic translation initiation factor 4E.
Eukaryotic translation initiation factor 4E, sequence (P06730 whole entry): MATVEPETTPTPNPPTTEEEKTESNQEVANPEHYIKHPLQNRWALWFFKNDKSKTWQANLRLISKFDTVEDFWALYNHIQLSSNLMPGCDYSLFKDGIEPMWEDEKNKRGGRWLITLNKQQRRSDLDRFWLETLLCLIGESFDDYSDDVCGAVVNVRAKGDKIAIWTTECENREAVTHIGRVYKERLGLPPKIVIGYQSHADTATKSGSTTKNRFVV

As a reminder, the pIC50 is −log10 of the IC50, conventionally taken in molar units. A low value points to a high IC50. The compound `CN1CN(C2O[C@H](CO)[C@@H](O)[C@H]2O)C2=NC=NC(O)C21` (some centres not stated) had a pIC50 of less than 3.40. As for `CN1CN(C2O[C@H](CO)[C@@H](O)[C@H]2O)c2nc(N)[nH]c(=S)c21` (some centres not stated), the figure is less than 3.40.
